Data: patent publication US11331299B2, “Medicinal use of serrulatane diterpenes” (The University of Sydney, priority 2016, dated 2022)

Tested on: 43 cancer cell lines and one normal cell line
Assay: In vitro cell viability assay (intracellular ATP, 72 hour)
Assay type: cell-based
Settings: 10 μM

Question: `CC(C)=CCC[C@H](C)[C@@H]1CC[C@@H](C)c2c1cc(C)c(O)c2O` [Compound 4, 7,8-dihydroxyserrulat-14-ene] was tested. Which “reduction in cell viability” value (Ramos, H33HJ-JA1, HL-60 (TB), MOLT-4, MV-411, SK-N-MC) did it give?
Answer: Its value is −82 to −94%.

Question: What about the “% Cell growth” value (4T1 (Breast Cancer)) of the same compound?
Answer: The value was 26%.

Question: What about the “% Cell growth” value (A375 (Skin)) of the same compound?
Answer: The value was 65%.

Question: What about the “% Cell growth” value (A549/ATCC (Non-Small Cell Lung Cancer)) of the same compound?
Answer: The value was 93%.

Question: And the “% Cell growth” value (A-431 (Skin))?
Answer: Its value is 107%.

Question: What about the “% Cell growth” value (A-498 (Kidney Cancer)) of the same compound?
Answer: The value was 89%.

Question: And the “% Cell growth” value (ACHN (Kidney Cancer))?
Answer: Its value is 105%.

Question: What about the “% Cell growth” value (B16-F0 (Melanoma)) of the same compound?
Answer: The value was 56%.

Question: And the “% Cell growth” value (BT474 (Breast Cancer))?
Answer: Its value is 64%.

Question: And the “% Cell growth” value (CT26.WT (Colon Cancer))?
Answer: Its value is 33%.

Question: And the “% Cell growth” value (DLD-1 (Colon Cancer))?
Answer: The value was 68%.

Question: And the “% Cell growth” value (H33HJ-JA1 (Lymphoma))?
Answer: The value was −87%.

Question: What about the “% Cell growth” value (HC-4 (Liver Cancer)) of the same compound?
Answer: Its value is 91%.

Question: What about the “% Cell growth” value (HCT-15 (Colon Cancer)) of the same compound?
Answer: The value was 69%.

Question: And the “% Cell growth” value (HCT-116 (Colon Cancer))?
Answer: The value was 64%.

Question: What about the “% Cell growth” value (HT-29 (Colon Cancer)) of the same compound?
Answer: The value was 91%.

Question: What about the “% Cell growth” value (Hep3B (Liver Cancer)) of the same compound?
Answer: The value was 93%.

Question: And the “% Cell growth” value (HepG2 (Liver Cancer))?
Answer: The value was 90%.

Question: And the “% Cell growth” value (K-562 (Leukemia))?
Answer: The value was 60%.

Question: And the “% Cell growth” value (KATO III (Stomach))?
Answer: The value was 83%.

Question: And the “% Cell growth” value (LL/2 (Non-Small Cell Lung Cancer))?
Answer: Its value is 98%.

Question: What about the “% Cell growth” value (LNCaP (Prostrate Cancer)) of the same compound?
Answer: Its value is 56%.

Question: And the “% Cell growth” value (MCF7 (Breast Cancer))?
Answer: The value was 77%.

Question: And the “% Cell growth” value (MCF-7 AdrR (Breast Cancer))?
Answer: The value was 77%.

Question: And the “% Cell growth” value (MDA-MB-231 (Breast Cancer))?
Answer: The value was 84%.

Question: And the “% Cell growth” value (MDA-MB-468 (Breast Cancer))?
Answer: The value was 52%.

Question: And the “% Cell growth” value (MES-SA (Uterus))?
Answer: Its value is 68%.

Question: What about the “% Cell growth” value (MIA PaCa-2 (Pancreas)) of the same compound?
Answer: Its value is 92%.

Question: And the “% Cell growth” value (MOLT-4 (Leukemia))?
Answer: Its value is −93%.

Question: What about the “% Cell growth” value (MV-411 (Leukemia)) of the same compound?
Answer: The value was −94%.

Question: And the “% Cell growth” value (NCI-H460 (Non-Small Cell Lung Cancer))?
Answer: The value was 93%.

Question: And the “% Cell growth” value (OVCAR-3 (Ovarian Cancer))?
Answer: The value was 60%.

Question: And the “% Cell growth” value (PANC-1 (Pancreas))?
Answer: The value was 82%.

Question: What about the “% Cell growth” value (PC-6 (Non-Small Cell Lung Cancer)) of the same compound?
Answer: Its value is 4%.

Question: What about the “% Cell growth” value (Ramos (Lymphoma)) of the same compound?
Answer: Its value is −82%.

Question: And the “% Cell growth” value (SK-MEL-5 (Melanoma))?
Answer: Its value is 88%.

Question: And the “% Cell growth” value (SK-N-MC (Brain))?
Answer: Its value is −92%.

Question: What about the “% Cell growth” value (SK-OV-3 (Ovarian Cancer)) of the same compound?
Answer: The value was 74%.

Question: What about the “% Cell growth” value (SW-620 (Colon Cancer)) of the same compound?
Answer: The value was 74%.

Question: What about the “% Cell growth” value (T-47D (Breast Cancer)) of the same compound?
Answer: The value was 47%.

Question: And the “% Cell growth” value (U937 (Lymphoma))?
Answer: Its value is 20%.

Question: And the “% Cell growth” value (U-87 MG (Brain))?
Answer: The value was 81%.
